Measurements taken from patent publication US9453051B2, “Cyclosporin derivatives” (priority 2011, dated 2016).

What was measured:
calcineurin = calcineurin (Homo sapiens, UniProt P62937+P63098+Q08209); test: Inhibition of the phosphatase activity of calcineurin (scintillation-proximity-assay, in presence of Cyp18);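 further: calcineurin dephosphorylation of a ³³P-labelled RII phosphopeptide, captured on streptavidin-coated wells and read by scintillation counting, with uninhibited enzyme activity taken as 100%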
[1] = molecular target: recombinant human wild type Cyp18 (Cyp18 wt) (Homo sapiens, UniProt P62937); test: biochemical
Sequence of recombinant human wild type Cyp18 (Cyp18 wt) (P62937 whole entry): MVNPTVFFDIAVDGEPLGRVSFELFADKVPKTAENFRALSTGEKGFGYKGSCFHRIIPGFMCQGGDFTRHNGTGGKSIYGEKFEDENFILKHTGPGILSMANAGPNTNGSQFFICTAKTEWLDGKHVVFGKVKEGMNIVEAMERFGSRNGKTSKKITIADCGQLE
Description: The determination was performed on a UV/Vis spectrometer at 10° C. cuvette temperature, whereby the device is operated at 390 nm in kinetic-mode (measurement buffer: 35 mM HEPES/NaOH pH 7.8 (AppliChem A1069)). 0.58 nM recombinant human wild type Cyp18 (Cyp18 wt), 2.33 nM bovine serum albumin (BSA) and 1 mg/ml chymotrypsin (Merck) solved in 35 mM HEPES/NaOH pH 7.8 as well as different concentration of each test substance, where appropriate, were in the cuvette. The reaction was started with a stock solution of Suc-Ala-Ala-Pro-Phe-4-nitroanilide (Bachem, 10 mg/ml DMSO) as substrate so that a final substrate concentration of 32 μM resulted. The extinction-time-curves were evaluated after expiry of the fast phase of the reaction i.e. after approximately 60 seconds according to a rate equation of a first-order reaction.

CC[C@@H]1NC(=O)[C@H]([C@H](O)[C@H](C)Cc2nc3c(C(=O)O)cccc3n2C)N(C)C(=O)[C@H](C(C)C)N(C)C(=O)[C@H](CC(C)C)N(C)C(=O)[C@H](CC(C)C)N(C)C(=O)[C@@H](C)NC(=O)[C@H](C)NC(=O)[C@H](CC(C)C)N(C)C(=O)[C@H](C(C)C)NC(=O)[C@H](CC(C)C)N(C)C(=O)CN(C)C1=O [Compound 56]
IC50 (calcineurin): > 10 µM
IC50 [1]: > 1000 nM

CC[C@@H]1NC(=O)[C@H]([C@H](O)[C@H](C)Cc2nc3cc(C(=O)N[C@@H](CO)C(=O)N[C@@H](CCC(=O)O)C(N)=O)ccc3[nH]2)N(C)C(=O)[C@H](C(C)C)N(C)C(=O)[C@H](CC(C)C)N(C)C(=O)[C@H](CC(C)C)N(C)C(=O)[C@@H](C)NC(=O)[C@H](C)NC(=O)[C@H](CC(C)C)N(C)C(=O)[C@H](C(C)C)NC(=O)[C@H](CC(C)C)N(C)C(=O)CN(C)C1=O [Compound 62]
IC50 [1]: 4.4 nM

CC[C@@H]1NC(=O)[C@H]([C@H](O)[C@H](C)CC2=N[C@@H]3CS[C@H](CCCCC(=O)O)[C@@H]3N2)N(C)C(=O)[C@H](C(C)C)N(C)C(=O)[C@H](CC(C)C)N(C)C(=O)[C@H](CC(C)C)N(C)C(=O)[C@@H](C)NC(=O)[C@H](C)NC(=O)[C@H](CC(C)C)N(C)C(=O)[C@H](C(C)C)NC(=O)[C@H](CC(C)C)N(C)C(=O)CN(C)C1=O [Compound 4]
IC50 (calcineurin): > 10 µM
IC50 [1]: 264 nM

CC[C@@H]1NC(=O)[C@H]([C@H](O)[C@H](C)Cc2nc3cc(C(=O)O)ccc3o2)N(C)C(=O)[C@H](C(C)C)N(C)C(=O)[C@H](CC(C)C)N(C)C(=O)[C@H](CC(C)C)N(C)C(=O)[C@@H](C)NC(=O)[C@H](C)NC(=O)[C@H](CC(C)C)N(C)C(=O)[C@H](C(C)C)NC(=O)[C@H](CC(C)C)N(C)C(=O)CN(C)C1=O [Compound 6]
IC50 [1]: 700 nM

CC[C@@H]1NC(=O)[C@H]([C@H](O)[C@H](C)Cc2nc3cc(C(=O)NCCN4CCNCC4)ccc3[nH]2)N(C)C(=O)[C@H](C(C)C)N(C)C(=O)[C@H](CC(C)C)N(C)C(=O)[C@H](CC(C)C)N(C)C(=O)[C@@H](C)NC(=O)[C@H](C)NC(=O)[C@H](CC(C)C)N(C)C(=O)[C@H](C(C)C)NC(=O)[C@H](CC(C)C)N(C)C(=O)CN(C)C1=O [Compound 64]
IC50 [1]: 17.2 nM

CC[C@@H]1NC(=O)[C@H]([C@H](O)[C@H](C)Cc2nc3cc(C(=O)N[C@@H](CCC(=O)O)C(=O)N[C@@H](CCC(=O)O)C(N)=O)ccc3[nH]2)N(C)C(=O)[C@H](C(C)C)N(C)C(=O)[C@H](CC(C)C)N(C)C(=O)[C@H](CC(C)C)N(C)C(=O)[C@@H](C)NC(=O)[C@H](C)NC(=O)[C@H](CC(C)C)N(C)C(=O)[C@H](C(C)C)NC(=O)[C@H](CC(C)C)N(C)C(=O)CN(C)C1=O [Compound 63]
IC50 [1]: 5.1 nM

CC[C@@H]1NC(=O)[C@H]([C@H](O)[C@H](C)Cc2nc3cc(C(=O)N[C@@H](CS)C(=O)N[C@@H](CS)C(N)=O)ccc3[nH]2)N(C)C(=O)[C@H](C(C)C)N(C)C(=O)[C@H](CC(C)C)N(C)C(=O)[C@H](CC(C)C)N(C)C(=O)[C@@H](C)NC(=O)[C@H](C)NC(=O)[C@H](CC(C)C)N(C)C(=O)[C@H](C(C)C)NC(=O)[C@H](CC(C)C)N(C)C(=O)CN(C)C1=O [Compound 61]
IC50 [1]: ~10 nM

CC[C@@H]1NC(=O)[C@H]([C@H](O)[C@H](C)Cc2nc3cc(C(=O)N[C@@H](CCC(=O)OCc4ccccc4)C(=O)N[C@@H](CCC(=O)OCc4ccccc4)C(N)=O)ccc3[nH]2)N(C)C(=O)[C@H](C(C)C)N(C)C(=O)[C@H](CC(C)C)N(C)C(=O)[C@H](CC(C)C)N(C)C(=O)[C@@H](C)NC(=O)[C@H](C)NC(=O)[C@H](CC(C)C)N(C)C(=O)[C@H](C(C)C)NC(=O)[C@H](CC(C)C)N(C)C(=O)CN(C)C1=O [Compound 57]
IC50 [1]: 16.9 nM

CC[C@@H]1NC(=O)[C@H]([C@H](O)[C@H](C)Cc2nc3cc(C(=O)N[C@@H](CS)C(=O)N[C@@H](C)C(N)=O)ccc3[nH]2)N(C)C(=O)[C@H](C(C)C)N(C)C(=O)[C@H](CC(C)C)N(C)C(=O)[C@H](CC(C)C)N(C)C(=O)[C@@H](C)NC(=O)[C@H](C)NC(=O)[C@H](CC(C)C)N(C)C(=O)[C@H](C(C)C)NC(=O)[C@H](CC(C)C)N(C)C(=O)CN(C)C1=O [Compound 60]
IC50 [1]: ~10 nM
